Measured values: patent publication US7601717B2, “Pterin analogs” (BioMarin Pharmaceutical Inc., priority 2008, dated 2009)
Structures can show the parent of a compound that is named as a salt. Where two headings read alike, the source gives them in different places.

What was measured:
[1] = HPLC with ECD and fluorescence detection of biopterins in plasma of dosed monkeys; assay type: in vivo, cynomolgus monkeys; conditions: plasma 2 hours post-administration, 2% MeOH mobile phase, FIG. 16
Method: An HPLC method using Electrochemical Detection (ECD) and Fluorescence (FL) detection is advantageous as it allows for the measurement of each of the discrete biopterin compounds (BH4, BH2 and B) as well as analog, such as prodrug, forms (e.g., Val-BH4, Val-BH2, and Val-B).
The concentrations of different biopterins (BH4, BH2 and B) and Val-biopterins are determined by initially using reverse phase HPLC for separation, followed by ECD and FL detection. BH4 and Val-BH4 are measured using ECD in which BH4 and Val-BH4 are oxidized by electrode 1 to quinonoid dihydrobiopterin forms (qBH2 or Val-qBH2, respectively), a short-lived dihydrobiopterin intermediate, and then reduced back to BH4 or Val-BH4 at electrode 2. The detector then uses the current generated by this reduction reaction to determine the concentration of BH4 or Val-BH4, respectively. BH2, Val-BH2, B and Val-B are measured by fluorescence detection. […] This is desirable because BH2 is not fluorescently active or easily measured and must be converted to biopterin, which is easily measured using fluorescence. […] In one embodiment, the biopterin analogs, such as valine biopterin derivatives, are measured using a 10% MeOH-containing mobile phase whereas the biopterins are measured using a 2% MeOH-containing mobile phase.
The compound of Example 5 can be detected in buffer and by extraction using this assay. […]

eNOS = eNOS (Homo sapiens, UniProt P29474); test: Cell-free eNOS activity assay reconstituted from purified components; assay type: biochemical; conditions: 1, 10, 100 μM, 90 minutes at 37° C., nitrite by DAN fluorescence
Method: Also tested was the effect of BH4 analogs compared to free BH4 on stimulation of eNOS activity in a cell-free assay system reconstituted from purified components. 90 μL of reaction mixture (25 mM Tris-HCL, pH7.4, 1 μM FAD, 1 μM FMN, 100 μM L-Arginine, 2.5 mM CaCl2, 1 mM NADPH, 0.04 mg/ml Calmodulin) was mixed with 5 μl of eNOS (15 units/ml) and 5 μl of BH4 or BH4 analogs (1, 10, 100 μM), followed by incubation in a 37° C. water bath for 90 minutes. Then 100 μl of water and 20 μl of the nitrite fluorescent probe DAN (2,3-diaminonaphthalene, 316 μM) were added to each reaction and incubated at room temperature for 10 minutes. The dye DAN reacts with nitrite to yield the fluorescent product naphthotriazole. The reaction was then stopped by adding 10 μl of NaOH (2.8 M), and the fluorescence of the samples was read using excitation frequency 375 nm and emission frequency 415 nm.

[2] = Pharmacokinetics and bioavailability, single intravenous or oral doses, partial Latin square crossover; assay type: in vivo, male cynomolgus monkeys; conditions: for bioavailability: male, cynomolgus monkey, plasma, po; for Absolute Bioavailability of the BH4 Analog: dihydrochloride; for Val-BH4/(BH4 + BH2 + B), analog remaining in systemic circulation / Val-BH4/BH4, analog remaining in systemic circulation: determined from AUC0-t; for Val-BH4/total biopterin, analog remaining in systemic circulation: from AUC0-t, total biopterin adjusted to BH4 analog
Method: This study was to determine the pharmacokinetics and relative bioavailability of BH4 when given as parent BH4 or an analog of BH4 to male cynomolgus monkeys as single intravenous or oral doses in a partial Latin square crossover design.
Six, male, non-naïve cynomolgus monkeys were fasted overnight prior to dosing through approximately 4 hours postdose. Individual doses were calculated based on body weights recorded on each day of dose administration. Five experimental groups of monkeys were evaluated using a partial Latin square crossover design: Group 1-2 mg/kg BH4 by IV; Group 2-40 mg/kg BH4 by oral gavage; Group 3-2 mg/kg BH4 analog by IV; Group 4-5 mg/kg BH4 analog by oral gavage; Group 5-20 mg/kg BH4 analog by oral gavage. The doses of BH4 analog were prepared as mg/kg equivalents of BH4 (calculated using BH4 and BH4 analog 2HCl molecular weights). The partial Latin square crossover design was used to minimize dose sequence effect on interanimal variability for statistical purposes. The monkeys received their respective dose of BH4 intravenously (2 mL/kg, dissolved in 100 μM ascorbic acid and 5% mannitol in sterile water for injection, SWFI), Example 5 intravenously (2 mL/kg, dissolved in 100 μM ascorbic acid and 5% mannitol in citrate buffer, pH 3) or BH4 or Example 5 by oral gavage (4 mL/kg, dissolved in 100 μM ascorbic acid in SWFI). Prior to use, all intravenous dose formulations were filtered into the final dosing container using a 0.22-micron syringe filter (Millex GS or GV; Millipore).
For intravenous administration, blood (approximately 1 mL) was collected from each animal predose and at 0.083, 0.25, 0.5, 1, 2, 3, 4, 6, 8, 12, 18, and 24 hours postdose. For oral administration, blood (approximately 1 mL) was collected from each animal predose and at 0.25, 0.5, 1, 2, 3, 4, 6, 8, 12, 18, and 24 hours postdose. Blood was collected into tubes containing K2-EDTA anticoagulant, which was maintained in chilled condition, and centrifuged to obtain plasma. Centrifugation began within 30 minutes of collection. Three, 100-μL aliquots of each plasma sample were promptly transferred following centrifugation into individual tubes containing 0.1% (w/v) dithioerythritol (DTE) for storage. Once the plasma aliquot was added, each tube was vortexed briefly to mix then immediately placed on dry ice.

[3] = as above; assay type: in vivo, male cynomolgus monkeys; conditions: male, cynomolgus monkey, plasma; intravenous; title 5 mg/kg, text 2 mg/kg; n=6

height of the BH4 peak compared with monkeys administered BH4 [1]: several fold higher
bioavailability ([2]; 5 mg/kg, oral 5 mg/kg (BH4 equivalents), n=6, read-out: Absolute Bioavailability of the BH4 Analog): 36%
bioavailability ([2]; 20 mg/kg, oral 20 mg/kg (BH4 equivalents), n=6, read-out: Absolute Bioavailability of the BH4 Analog): 33%
bioavailability ([2]; 20 mg/kg, oral 5 and 20 mg/kg, read-out: absolute bioavailability of Val-BH4 present in plasma): 33 to 36%
Absolute Bioavailability of the BH4 Analog ([2]; oral 5 mg/kg (BH4 equivalents), n=6, 5 mg/kg): 36.2 (26.3) %
Val-BH4/(BH4 + BH2 + B), analog remaining in systemic circulation ([2]; oral 5 mg/kg, n=6): 36.4 (16.0) %
Val-BH4/BH4, analog remaining in systemic circulation ([2]; oral 5 mg/kg, n=6): 56.3 (25.2) %
Val-BH4/total biopterin, analog remaining in systemic circulation ([2]; oral 5 mg/kg, n=6): 23.5 (5.6) %
Absolute Bioavailability of the BH4 Analog ([2]; oral 20 mg/kg (BH4 equivalents), n=6, 20 mg/kg): 33.2 (29.2) %
Val-BH4/(BH4 + BH2 + B), analog remaining in systemic circulation ([2]; oral 20 mg/kg, n=6): 51.6 (11.6) %
Val-BH4/BH4, analog remaining in systemic circulation ([2]; oral 20 mg/kg, n=6): 81.0 (18.1) %
Val-BH4/total biopterin, analog remaining in systemic circulation ([2]; oral 20 mg/kg, n=6): 40.7 (11.1) %
percent of Val-BH4 remaining in systemic circulation ([2]; oral 5 and 20 mg/kg, based on total biopterin adjusted to Val-BH4): greater than 23.5±5.6%
AUC(0-inf) [3]: 5.24 µM·h
AUC(0-t) [3]: 4.17 µM·h
Cmax [3]: 13.1 µM
Tmax [3]: 4.8 min
SMILES: CC(C)[C@H](N)C(=O)O[C@@H](C)[C@H](O)[C@H]1CNc2nc(N)[nH]c(=O)c2N1 [Example 5, 2-Amino-3-methyl-butyric acid 2-(2-amino-4-oxo-3,4,5,6,7,8-hexahydro-pteridin-6-yl)-2-hydroxy-1-methyl-ethyl ester dihydrochloride]
potentiation of eNOS activity (eNOS): did not significantly potentiate eNOS activity
absorption and distribution of the analog in plasma ([2]; oral 5 mg/kg, FIG. 10): absorbed quickly and was rapidly distributed by 4 hr
